Ends that are not written are not given here.
Key:
[1] = biological target: T1, hexahistidine tagged MDM2 (18–125) (Homo sapiens, UniProt Q00987); assay: Isothermal titration calorimetry (ITC) of ligands against MDM2; format: binding; conditions: PBS pH 7.4, 0.05% TWEEN20, 1% DMSO; for Kd: 10 or 20 µM MDM2 in cell
T1 construct: DNA encoding residues Q18 to N125 of HDM2; made in house; host or cells: E. coli BL21(DE3)
Protocol: DNA encoding residues Q18 to N125 of HDM2 were cloned as a NdeI/BamHI fragment into pET19b (Novagen). Recombinant clones carrying the correct insert were identified by DNA sequencing. Plasmid from the identified clone was introduced into E. coli BL21(DE3) and protein production in LB medium was induced with IPTG (1 mM) when the cell density reached OD600 between 0.4 and 0.6. Induced cells were grown at room temperature for 5 h, harvested, and then resuspended in buffer A (50 mM Tris pH 8.0, 10% sucrose). After cell disruption and centrifugation, supernatant was loaded onto a Ni-nitrilotriacetic acid (NTA) column and washed with 5 column volumes of 0.3 M NaCl, 50 mM Tris-HCl pH 8.0, 1 mM DTT. […] The protein was further purified by cation-exchange chromatography (Pharmacia Mono S 5/5, 1 ml/min, 50 mM Tris-HCl pH 7.0, 1 mM DTT) with a 1 M NaCl gradient.
ITC experiments were conducted in a VP-ITC Unit (MicroCal, Northampton, MA). […] All titrations were carried out in 1% DMSO. […] All peptides used were weighed out as solids and dissolved in DMSO. The stock peptide solutions were diluted to their working concentrations in the buffer used for dialysis of the protein. DMSO was carefully added to the MDM2 solution in the VP-ITC cell to buffer match it to the peptide solution. The titration experiments were performed at 20°C with an initial 2 µl injection with duration of 4 s, followed by 28 10 µl injections with a duration of 7.1 s. The spacing between each injection was 150 s. The stirring speed during the titration was 290 rpm. Data was analyzed using Microcal Origin software by fitting to a single-site binding model. Correction for the enthalpy of ligand dilution was carried out by subtracting a linear fit from the last three data points of the titration, after the interaction had reached saturation.

[2] = system: N-terminal domain of MDM2; conditions: peptide of residues 12–30 of WT p53, binding to N-terminal domain of MDM2; ref 10 (Zondlo et al.); cited from earlier work
Text: The molecular interaction of the binding of the MDM2 N-terminal domain to the p53 N-terminus (TA domain) is well understood. Several high-resolution crystal and NMR structures in complex with a variety of peptides and small molecules have been elucidated, [8]. These structural studies indicate that the residues F19, W23 and L26 of the TA domain of p53 are critical for binding to MDM2. Indeed most peptides, peptidomimetics and small molecules that have been developed have indeed emerged as a result of mimicking these interactions. However, it has been known for some time that the other ...

[3] = 293 K (20°C), single-site binding model

T1 sequence (Q00987 18-125): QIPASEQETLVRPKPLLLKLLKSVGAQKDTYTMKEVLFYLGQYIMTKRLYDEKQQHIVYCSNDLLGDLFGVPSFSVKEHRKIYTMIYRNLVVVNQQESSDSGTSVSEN

Compound | Kd [1, 3] [nM] | further results
MPRFMDYWEGLP-NH2 [12/1Pro] | 213 ± 36.6 | 
Nutlin [Nutlin Racemic, reference compound] |  | ΔG ([1]; binding free energy calculated from the Kd using ΔG = −RTlnKa, 293 K): -8.97 ± 0.15 kcal/mol; ΔH ([1]; enthalpy of binding, 293 K (20°C), single-site binding model): -6.10 ± 0.16 kcal/mol; TΔS ([1]; entropy of binding, 293 K (20°C)): 2.88 kcal/mol
CSCC[C@H](NC(=O)[C@H](Cc1ccccc1)NC(=O)[C@H](CCCNC(=N)N)NC(=O)[C@@H]1CCCN1C(=O)[C@@H](N)CCSC)C(=O)N[C@@H](CC(=O)O)C(=O)N[C@@H](Cc1ccc(O)cc1)C(=O)N[C@@H](Cc1c[nH]c2ccccc12)C(=O)N[C@@H](CCC(=O)O)C(=O)NCC(=O)N[C@@H](CC(C)C)C(=O)N[C@@H](CO)C(N)=O [12/1Ser] | 18.8 ± 5.03 | 
MPRFMDYWEGLA-NH2 [12/1Ala] | 47.2 ± 11.1 | 
MPRFMDYWEGLT-NH2 [12/1Thr] | 22.9 ± 4.21 | 
P27S: P27S substitution in a peptide corresponding to residues 12–30 of the WT p53 sequence (Zondlo et al.) (PPLSQETFSDLWKLLSENN; not fully specified (C-terminus); UniProt P04637 12-30, looked up, variant P27S) |  | fold improvement in Kd over the wild type sequence [2]: ~200 fold

Second part, led by results:

Kd [1, 3] [nM] | Compound | further results
112 ± 17.9 | CC(C)C[C@H](NC(=O)[C@H](CC(C)C)NC(=O)[C@H](CCCCN)NC(=O)[C@H](Cc1c[nH]c2ccccc12)NC(=O)[C@H](CC(C)C)NC(=O)[C@H](CC(=O)O)NC(=O)[C@H](CO)NC(=O)[C@H](Cc1ccccc1)NC(=O)[C@@H](NC(=O)[C@H](CCC(=O)O)NC(=O)[C@@H](N)CCC(N)=O)[C@@H](C)O)C(=O)N[C@@H](C)C(N)=O [p53 Ala] | 
168 ± 9.24 | CC(C)C[C@H](NC(=O)[C@H](CC(C)C)NC(=O)[C@H](CCCCN)NC(=O)[C@H](Cc1c[nH]c2ccccc12)NC(=O)[C@H](CC(C)C)NC(=O)[C@H](CC(=O)O)NC(=O)[C@H](CO)NC(=O)[C@H](Cc1ccccc1)NC(=O)[C@@H](NC(=O)[C@H](CCC(=O)O)NC(=O)[C@@H](N)CCC(N)=O)[C@@H](C)O)C(=O)N[C@@H](CC(N)=O)C(N)=O [P53 Asn] | 
75.8 ± 10.4 | CC(C)C[C@H](NC(=O)[C@H](CC(C)C)NC(=O)[C@H](CCCCN)NC(=O)[C@H](Cc1c[nH]c2ccccc12)NC(=O)[C@H](CC(C)C)NC(=O)[C@H](CC(=O)O)NC(=O)[C@H](CO)NC(=O)[C@H](Cc1ccccc1)NC(=O)[C@@H](NC(=O)[C@H](CCC(=O)O)NC(=O)[C@@H](N)CCC(N)=O)[C@@H](C)O)C(=O)N[C@@H](CO)C(N)=O [p53 Ser] | 
240 ± 53.8 | MPRFMDYWEGLN-NH2 [12/1] | 
38.8 ± 7.43 | CC(C)C[C@H](NC(=O)[C@H](CC(=O)O)NC(=O)[C@H](CO)NC(=O)[C@H](Cc1ccccc1)NC(=O)[C@@H](NC(=O)[C@H](CCC(=O)O)NC(=O)[C@@H](N)CCC(N)=O)[C@@H](C)O)C(=O)N[C@@H](Cc1c[nH]c2ccccc12)C(=O)N[C@@H](CCCCN)C(=O)N[C@@H](CC(C)C)C(=O)N[C@@H](CC(C)C)C(=O)N[C@H](C(N)=O)[C@@H](C)O [p53Thr] | 

— paper PMC3164098, “C-Terminal Substitution of MDM2 Interacting Peptides Modulates Binding Affinity by Distinctive Mechanisms” (PLoS ONE, 2011)
